Source: PubChem BioAssay AID651650 (Sanford-Burnham Center for Chemical Genomics, 2012)
Activity calls are given as the source filed them.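 Rule for the calls: active = mean IC50 below 20 µM in each of the two panels, so potent in both; inactive = the rest.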

Molecular target: Neuropilin-1 (Homo sapiens) (UniProt O14786)
Assay: blockers of CendR peptide binding to NRP-1 – biochemical, FP and AlphaScreen panel, dose response (AID 651650)
Settings: NRP-1 b1b2 / RPARPAR peptide binding, FP or AlphaScreen
[1] = AlphaScreen, run 1, individual panel run IC50
[2] = FP, run 1, individual panel run IC50
[3] = FP, run 2, individual panel run IC50

Neuropilin-1 (Homo sapiens), sequence (O14786 whole entry, looked up): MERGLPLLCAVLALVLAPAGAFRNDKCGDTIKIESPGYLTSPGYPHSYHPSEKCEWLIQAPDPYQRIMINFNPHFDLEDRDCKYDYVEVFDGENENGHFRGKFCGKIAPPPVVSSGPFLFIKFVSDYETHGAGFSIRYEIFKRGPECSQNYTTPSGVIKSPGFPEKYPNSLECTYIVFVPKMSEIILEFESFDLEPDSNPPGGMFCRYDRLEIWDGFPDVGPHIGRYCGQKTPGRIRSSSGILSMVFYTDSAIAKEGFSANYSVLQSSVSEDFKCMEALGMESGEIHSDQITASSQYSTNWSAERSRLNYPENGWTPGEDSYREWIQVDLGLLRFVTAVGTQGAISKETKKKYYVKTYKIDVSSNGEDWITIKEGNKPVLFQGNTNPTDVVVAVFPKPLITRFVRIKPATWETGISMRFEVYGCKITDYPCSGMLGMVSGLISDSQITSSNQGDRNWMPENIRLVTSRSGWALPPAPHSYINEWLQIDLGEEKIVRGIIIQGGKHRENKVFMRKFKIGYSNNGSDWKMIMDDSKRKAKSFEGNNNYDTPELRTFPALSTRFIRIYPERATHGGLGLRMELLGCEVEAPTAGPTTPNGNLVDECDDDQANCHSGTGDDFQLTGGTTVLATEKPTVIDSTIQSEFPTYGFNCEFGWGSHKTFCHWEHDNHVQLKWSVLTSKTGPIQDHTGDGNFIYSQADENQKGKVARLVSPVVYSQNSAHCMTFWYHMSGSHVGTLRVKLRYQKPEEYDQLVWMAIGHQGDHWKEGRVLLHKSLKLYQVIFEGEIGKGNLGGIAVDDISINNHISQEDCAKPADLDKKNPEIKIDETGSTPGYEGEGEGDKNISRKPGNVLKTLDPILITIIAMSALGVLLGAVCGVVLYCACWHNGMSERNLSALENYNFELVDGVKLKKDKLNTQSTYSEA

| SMILES | IC50 (AlphaScreen, mean of runs) | IC50 [1] [µM] | IC50 (FP, mean of runs) | IC50 [2] [µM] | IC50 [3] [µM] |
| --- | --- | --- | --- | --- | --- |
| Cc1ccc(NC=C(S(=O)(=O)c2ccccc2)S(=O)(=O)c2ccccc2)cc1 | > 100 µM (inactive) | > 100 | > 95 µM (inactive) | > 95 | > 95 |
| CCc1ccc(OC(=O)CN2C(=O)c3ccccc3C2=O)cc1 | inactive | 32 | > 95 µM (inactive) | > 95 | > 95 |
| O=C(O)c1cccc(N2C(=O)c3cc([N+](=O)[O-])cc4cc([N+](=O)[O-])cc(c34)C2=O)c1 | > 100 µM (inactive) | > 100 | > 95 µM (inactive) | > 95 | > 95 |
| CCOC(=O)Cc1ccc(NS(=O)(=O)c2ccc(SC)cc2)cc1 | > 100 µM (inactive) | > 100 | > 95 µM (inactive) | > 95 | > 95 |
| CCN(Cc1ccncc1)C(=O)c1cc(COc2ccc(F)cc2F)on1 | > 100 µM (inactive) | > 100 | > 95 µM (inactive) | > 95 | > 95 |
| CCOC(=O)N1CCN(C(=O)Nc2ccc3nc(C)c(C)nc3c2)CC1 | > 100 µM (inactive) | > 100 | > 95 µM (inactive) | > 95 | > 95 |
| O=C(NCc1ccccc1)c1cccc(S(=O)(=O)N2CCCCC2)c1 | inactive | 39.8 | > 95 µM (inactive) | > 95 | > 95 |
| COc1cc(C(=O)OCCCOC(=O)c2cc(OC)c(OC)c(OC)c2)cc(OC)c1OC | > 100 µM (inactive) | > 100 | > 95 µM (inactive) | > 95 | > 95 |
| COC/C=C/C1=CC2=CC(=O)C(C)(OC(=O)c3cnc4ccccc4n3)C(=O)C2=CN1Cc1ccc(OC)cc1 (stereo not given) | inactive | 46.4 | > 95 µM (inactive) | > 95 | > 95 |
| CC(C)C(N)c1csc(NC(=O)Nc2cccc(C(F)(F)F)c2)n1 (stereo not given) | > 100 µM (inactive) | > 100 | > 95 µM (inactive) | > 95 | > 95 |
| Cc1cn([C@H]2C[C@H](O)[C@@H](CCC(=O)NCCc3ccc4ccccc4c3)O2)c(=O)[nH]c1=O | > 100 µM (inactive) | > 100 | > 95 µM (inactive) | > 95 | > 95 |
| COc1cccc(OCC(=O)NNC(=S)Nc2ccc(Cl)cc2Cl)c1 | > 100 µM (inactive) | > 100 | > 95 µM (inactive) | > 95 | > 95 |
| COc1ccc(/C=N/NC(=O)c2cc(C(C)(C)C)[nH]n2)cc1COc1ccc(F)cc1F | > 100 µM (inactive) | > 100 | > 95 µM (inactive) | > 95 | > 95 |
| Cc1ccc(C(=O)N/C(=C\c2ccc(-c3ccccc3[N+](=O)[O-])o2)C(=O)NCCCN2CCOCC2)cc1 | > 100 µM (inactive) | > 100 | > 95 µM (inactive) | > 95 | > 95 |
| CC(C)OC(=O)CSc1nnc(-c2ccccn2)n1-c1ccccc1 | > 100 µM (inactive) | > 100 | > 95 µM (inactive) | > 95 | > 95 |
| CCOC(=O)Cc1csc(NC(=O)CSc2ncnc3c2cnn3-c2ccccc2Cl)n1 | > 100 µM (inactive) | > 100 | > 95 µM (inactive) | > 95 | > 95 |
| CC(Nc1ccc2ccccc2c1)C(=O)N/N=C/c1ccncc1 (stereo not given) | > 100 µM (inactive) | > 100 | > 95 µM (inactive) | > 95 | > 95 |
| CC(C)(C)C(=O)COC(=O)c1cc(-c2ccncc2)nc2ccccc12 | > 100 µM (inactive) | > 100 | inactive | > 95 | 40.5 |
| CSc1cccc(CN2CCN(Cc3ccccc3)C(CCO)C2)c1 (stereo not given) | > 100 µM (inactive) | > 100 | > 95 µM (inactive) | > 95 | > 95 |
| Cn1cnc2cc(NC(=O)c3ccco3)ccc21 | 18.5 µM | 18.5 | > 95 µM (inactive) | > 95 | > 95 |
| Cc1ccccc1/C=C/c1nc2ccccc2c(=O)n1CCc1ccccc1 | > 100 µM (inactive) | > 100 | > 95 µM (inactive) | > 95 | > 95 |
| COc1ccc(-c2csc(NC(CO)c3nc4ccccc4n3CCCO)n2)cc1 (stereo not given) | > 100 µM (inactive) | > 100 | > 95 µM (inactive) | > 95 | > 95 |
